US8901310B2, “Tricyclic compounds, compositions, and methods” (Pfizer Inc., priority 2007, dated 2014)
One block for each compound: values may come before it.

What was measured:
[1] = system: osteocalcin; test: Serum osteocalcin suppression, 28-day repeat dose mouse model; format: in vivo; details: for Osteocalcin Suppression (ED80 dose): oral gavage 28 days, serum osteocalcin; for Serum osteocalcin (OC) EAUC50 / Serum osteocalcin (OC) EAUC80: data set 2, 28-day repeat dose model
[2] = biological target: full-length glucocorticoid (GR) protein (Homo sapiens (Human), UniProt P04150); test: Glucocorticoid receptor fluorescence polarization ligand binding (GRFP) assay
[3] = system: IL-6; test: IL-6 production in IL-1β-stimulated A549 cells; format: cell-based, human
Description: IL-6 IC50 and % Inhibition
Human A549 lung epithelial cells (American Type Culture Collection, Rockville, Md.) were cultured in Kaighn's F-12K medium with penicillin-streptomycin (10 U/mL) and 10% heat-inactivated fetal bovine serum (all from Invitrogen, Grand Island, N.Y.). A549 cells were plated at a density of 30,000 cells/well in 96-well plates and incubated overnight at 37° C. and with 5% CO2. The cells were serum-starved by replacing the growth medium with serum-free Kaighn's F-12K medium with penicillin-streptomycin (10 U/mL) and, again, incubating overnight at 37° C. and with 5% CO2. On the third day, the medium was replaced with fresh serum-free medium and the cells were incubated with or without compound (vehicle was DMSO at 0.1% maximum concentration) for approximately 1 hour and then stimulated with 1 ng/mL recombinant human IL-1β (R&D Systems, Minneapolis, Minn.) for 20 hours at 37° C. and with 5% CO2. Cell supernatants were collected for determination of IL-6 levels using MSD (Meso Scale Discovery, Gaithersburg, Md.) 96-well Single Spot plates as per the manufacturer's instructions. Plates were read with an MSD Sector Imager 6000. […] Vehicle was used to define the 0% inhibition control. Percent inhibition for each compound concentration, relative to these controls, was calculated using Excel (Microsoft, Redmond, Wash.). […]

[4] = system: Mouse Collagen-Induced Arthritis; test: Traditional mouse collagen-induced arthritis (mCIA) model; format: in vivo
Description: (§1) Mouse Collagen-induced arthritis is a commonly used chronic, preclinical model of rheumatoid arthritis in which joint swelling and bone destruction occur following immunization with type II collagen. Reduction of disease incidence and severity has been shown previously to be predictive of disease-modification and signs and symptoms mitigation, respectively, in a clinical setting.
In the traditional mCIA model, male DBA/J mice were immunized with 50 μg chick type II collagen (cCII) in complete Freund's adjuvant and then boosted 21 days later with 50 μg cCII in incomplete Freund's adjuvant. Treatment with compounds was initiated on the morning of the boost and continued for 56 days. The effectiveness of treatment was measured by disease incidence (i.e., number of mice showing any sign of disease) and disease severity, both of which were measured twice a week.

[5] = system: TNFα; test: LPS-induced serum TNFα suppression, 28-day repeat dose mouse model; format: in vivo
[6] = system: house dust mite-induced BAL inflammatory cell influx; test: House dust mite model of asthma, BAL fluid cell infiltration; format: in vivo, mouse; details: mice, 0.1, 1 and 10 mg/kg, p.o., b.i.d.
[7] = system: Mouse Collagen-Induced Arthritis; test: Therapeutic mouse collagen-induced arthritis (mCIA) model; format: in vivo
Text: as §1
In the therapeutic mCIA model, induction of disease incidence and severity was synchronized via LPS stimulation. Male DBA/J mice were immunized with 100 ug of bovine type II collagen (bCII) on day 0. All mice received an intraperitoneal injection of 20 μg of LPS on day 28 and disease was allowed to develop through day 34. At day 34, all mice had disease (incidence=100%) with an average severity score of seven. Dosing of compounds was initiated in the therapeutic mode on day 34 and continued through day 49. Different treatments were compared by measuring the decrease in incidence (i.e., resolution of disease) and the decrease in severity of paw swelling over time.

[8] = Solubility and intrinsic dissolution; format: physicochemical; details: compared with Example 1
[9] = system: cortical bone formation rate; test: Cortical bone histomorphometry, bone formation rate (BFR); format: in vivo, mouse
Description: Sigma-Aldrich, St. […] Calcein incorporates into the bone mineral and allows measurement of bone formation rate. Calcein was dissolved in 2% sodium bicarbonate. During the tissue harvest, the left tibiae were excised and cleaned for cortical histomorphometry measurements. After all skin and muscle were removed, tibiae were placed in 70% ethanol (4° C.) in the dark for a minimum of 24 hours. Ground transverse sections were used for histomorphometric analysis of cortical bone. Bones were sectioned using a low-speed saw (Isomet, Buehler, Lake Bluff, Ill.) equipped with a diamond wafer blade. The end of each tibia was removed proximal to tibia-fibula synostosis and a […] cross-section was cut. Using a roughened glass plate and a cork, sections were ground to […] until transparent and all labels were distinguishable under a fluorescent microscope. […] Sigma-Aldrich, St. Louis, Mo.). Sections were mounted using Eukitt Quick Mounting Medium (#03989, Sigma-Aldrich, St. Louis, Mo.) after which coverslip was applied. […] Bone formation rate was calculated by the following equation: (Inter-label width/Label interval)*(Labeled perimeter/Bone perimeter). At least five samples were measured from each treatment group in each study.

[10] = Plasma exposure (AUC) in the mouse; format: in vivo
[11] = data set 2, 28-day repeat dose model, unit assumed
[12] = data set 2, 28-day repeat dose model

Sequence of full-length glucocorticoid (GR) protein (P04150 whole entry): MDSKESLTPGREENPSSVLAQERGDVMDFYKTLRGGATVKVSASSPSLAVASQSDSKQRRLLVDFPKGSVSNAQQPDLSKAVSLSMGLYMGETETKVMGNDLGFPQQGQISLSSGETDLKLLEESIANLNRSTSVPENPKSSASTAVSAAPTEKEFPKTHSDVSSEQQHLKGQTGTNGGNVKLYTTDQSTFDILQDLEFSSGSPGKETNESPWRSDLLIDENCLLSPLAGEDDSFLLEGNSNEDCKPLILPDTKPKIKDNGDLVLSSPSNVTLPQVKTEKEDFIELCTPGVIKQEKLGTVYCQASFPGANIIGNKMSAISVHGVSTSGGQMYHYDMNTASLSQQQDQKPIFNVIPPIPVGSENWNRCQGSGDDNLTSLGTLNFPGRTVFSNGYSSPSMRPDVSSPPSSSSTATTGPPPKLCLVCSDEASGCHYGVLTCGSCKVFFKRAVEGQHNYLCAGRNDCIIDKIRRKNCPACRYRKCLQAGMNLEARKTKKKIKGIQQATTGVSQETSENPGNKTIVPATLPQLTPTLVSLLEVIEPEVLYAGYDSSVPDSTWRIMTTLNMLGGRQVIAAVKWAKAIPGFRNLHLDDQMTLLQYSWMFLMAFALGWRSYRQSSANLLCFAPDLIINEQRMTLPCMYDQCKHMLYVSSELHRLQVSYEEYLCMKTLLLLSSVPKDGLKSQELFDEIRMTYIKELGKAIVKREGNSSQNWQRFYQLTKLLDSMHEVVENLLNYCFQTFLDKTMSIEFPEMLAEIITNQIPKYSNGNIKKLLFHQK

Structure (SMILES): Cc1cnc(NC(=O)c2ccc3c(c2)CC[C@@H]2C[C@@](O)(C(F)(F)F)CC[C@@]32Cc2ccccc2)c(C)n1 [Comparator B, (4βS,7R,8αR)-4β-benzyl-N-(3,5-dimethylpyrazin-2-yl)-7-hydroxy-7-(trifluoromethyl)-4β,5,6,7,8,8α,9,10-octahydrophenanthrene-2-carboxamide]
Osteocalcin Suppression (ED80 dose) ([1]; mouse): >10 mg/kg

Structure (SMILES): Cc1ncccc1NC(=O)c1ccc2c(c1)CC[C@@H]1C[C@@](O)(CCC(F)(F)F)CC[C@@]21Cc1ccccc1 [Comparator C, (4βS,7S,8αR)-4β-benzyl-7-hydroxy-N-(2-methylpyridin-3-yl)-7-(3,3,3-trifluoropropyl)-4β,5,6,7,8,8α,9,10-octahydrophenanthrene-2-carboxamide]
Osteocalcin Suppression (ED80 dose) ([1]; mouse): 2.84 mg/kg

Structure (SMILES): Cc1ccncc1NC(=O)c1ccc2c(c1)CC[C@@H]1C[C@@](O)(C(F)(F)F)CC[C@@]21Cc1ccccc1 [Comparator D, (4βS,7R,8αR)-4β-benzyl-7-hydroxy-N-(4-methylpyridin-3-yl)-7-(trifluoromethyl)-4β,5,6,7,8,8α,9,10-octahydrophenanthrene-2-carboxamide]
Osteocalcin Suppression (ED80 dose) ([1]; mouse): 3.06 mg/kg

Structure (SMILES): Cc1ncccc1NC(=O)c1ccc2c(c1)C(=O)C[C@@H]1C[C@@](O)(C(F)(F)F)CC[C@@]21Cc1ccccc1 [Comparator E, (4βS,7R,8αS)-4β-benzyl-7-hydroxy-N-(2-methylpyridin-3-yl)-10-oxo-7-(trifluoromethyl)-4β,5,6,7,8,8α,9,10-octahydrophenanthrene-2-carboxamide]
Osteocalcin Suppression (ED80 dose) ([1]; mouse): 1.71 mg/kg

Structure (SMILES): Cc1ncccc1NC(=O)c1ccc2c(c1)[C@H](O)C[C@@H]1C[C@@](O)(C(F)(F)F)CC[C@@]21Cc1ccccc1 [Comparator F, (4βS,7R,8αR,10R)-4β-benzyl-7,10-dihydroxy-N-(2-methylpyridin-3-yl)-7-(trifluoromethyl)-4β,5,6,7,8,8α,9,10-octahydrophenanthrene-2-carboxamide]
Osteocalcin Suppression (ED80 dose) ([1]; mouse): >10 mg/kg

IC50 [2]: 2.13 nM
Structure (SMILES): Cc1c(NC(=O)c2ccc3c(c2)CC[C@@H]2C[C@@](O)(C(F)(F)F)CC[C@@]32Cc2ccccc2)ccc[n+]1[O-] [Comparator G]

Structure (SMILES): Cc1ncccc1NC(=O)c1ccc2c(c1)CC[C@@H]1C[C@@](O)(C(F)F)CC[C@@]21Cc1ccccc1 [Comparator H, (4βS,7R,8αR)-4β-benzyl-7-(difluoromethyl)-7-hydroxy-N-(2-methylpyridin-3-yl)-4β,5,6,7,8,8α,9,10-octahydrophenanthrene-2-carboxamide]
Osteocalcin Suppression (ED80 dose) ([1]; mouse): 1.46 mg/kg

Structure (SMILES): Cc1ncccc1NC(=O)c1ccc2c(c1)C=C[C@@H]1C[C@@](O)(C(F)(F)F)CC[C@@]21Cc1ccccc1 [Comparator I, (4βS,7R,8αS)-4β-benzyl-7-hydroxy-N-(2-methylpyridin-3-yl)-7-(trifluoromethyl)-4β,5,6,7,8,8α-hexahydrophenanthrene-2-carboxamide]
Osteocalcin Suppression (ED80 dose) ([1]; mouse): >20 mg/kg

Structure (SMILES): Cc1ncc(NC(=O)c2ccc3c(c2)CC[C@@H]2C[C@@](O)(CCC(F)(F)F)CC[C@@]32Cc2ccccc2)c(C)n1 [Comparator J, (4βS,7S,8αR)-4β-benzyl-N-(2,4-dimethylpyrimidin-5-yl)-7-hydroxy-7-(3,3,3-trifluoropropyl)-4β,5,6,7,8,8α,9,10-octahydrophenanthrene-2-carboxamide]
Osteocalcin Suppression (ED80 dose) ([1]; mouse): 3.58 mg/kg

IC50 ([3]; IL-1β 1 ng/mL, listed as Example 1 free base): 0.36 nM
Serum osteocalcin (OC) EAUC50 [1]: 1310 ng·h/mL
Serum osteocalcin (OC) EAUC80 [1]: 4150 ng·h/mL
Structure (SMILES): Cc1ncccc1NC(=O)c1ccc2c(c1)CC[C@@H]1C[C@@](O)(C(F)(F)F)CC[C@@]21Cc1ccccc1 [Example 1, (4βS,7R,8αR)-4β-benzyl-7-hydroxy-N-(2-methylpyridin-3-yl)-7-(trifluoromethyl)-4β,5,6,7,8,8α,9,10-octahydrophenanthrene-2-carboxamide]
Disease incidence (traditional mCIA) EAUC80 ([4]; data set 2): 0.10
Serum TNFα EAUC50 [5, 11]: 0.22 µg·h/mL
Serum TNFα EAUC80 [5, 11]: 0.33 µg·h/mL
cell infiltration into BAL fluid [6]: mitigated cell infiltration into BAL fluid dose-dependently
Disease incidence (therapeutic mCIA) EAUC50 ([7]; data set 2): 0.12 µg·h/mL
Disease incidence (therapeutic mCIA) EAUC80 ([7]; data set 2): 0.33 µg·h/mL
Disease severity (therapeutic mCIA) EAUC50 ([7]; data set 2, unit assumed): 0.09 µg·h/mL
Disease severity (therapeutic mCIA) EAUC80 ([7]; data set 2, unit assumed): 0.19 µg·h/mL
Therapeutic mCIA (ED50 dose) ([7]; mouse): less than 1 mg/kg

solubility and intrinsic dissolution [8]: enhanced
Structure (SMILES): Cc1ncccc1NC(=O)c1ccc2c(c1)CC[C@@H]1C[C@@](OP(=O)(O)O)(C(F)(F)F)CC[C@@]21Cc1ccccc1 [Example 2, (2R,4αS,10αR)-4α-benzyl-7-((2-methylpyridin-3-yl)carbamoyl)-2-(trifluoromethyl)-1,2,3,4,4α,9,10,10α-octahydrophenanthren-2-yl dihydrogen phosphate]

Structure (SMILES): C[C@]12C=CC(=O)C=C1CC[C@@H]1[C@@H]2[C@@H](O)C[C@@]2(C)[C@H]1CC[C@]2(O)C(=O)CO [Prednisolone]
IL-6 % Inhibition ([3]; additional result (footnote a)): 100%
Serum osteocalcin EAUC50 ([1]; AUC 0-4 hr, mouse): 560 ng·h/mL
Serum osteocalcin EAUC80 ([1]; AUC 0-4 hr, mouse): 1600 ng·h/mL
Serum osteocalcin (OC) EAUC50 [1]: 560 ng·h/mL
Serum osteocalcin (OC) EAUC80 [1]: 1640 ng·h/mL
Cortical bone formation rate (BFR) EAUC50 ([9]; AUC 0-4 hr, mouse): 0.09 µg·h/mL
Cortical bone formation rate (BFR) EAUC80 ([9]; AUC 0-4 hr, mouse): 0.60 µg·h/mL
Cortical bone formation rate (BFR) EAUC50 [9, 12]: 0.10
Cortical bone formation rate (BFR) EAUC80 [9, 12]: 0.66
AUC(0-4 hr) as share of AUC(0-24 hr) [10]: more than 95%
Disease incidence (traditional mCIA) EAUC50 ([4]; AUC 0-4 hr, mouse): 0.25 µg·h/mL
Disease incidence (traditional mCIA) EAUC80 ([4]; AUC 0-4 hr, mouse): 0.60 µg·h/mL
Disease incidence (traditional mCIA) EAUC80 ([4]; data set 2): 0.50
Serum TNFα EAUC50 ([5]; AUC 0-4 hr, mouse): 0.81 µg·h/mL
Serum TNFα EAUC80 ([5]; AUC 0-4 hr, mouse): 0.95 µg·h/mL
Serum TNFα EAUC50 [5, 11]: 0.82 µg·h/mL
Serum TNFα EAUC80 [5, 11]: 0.95 µg·h/mL
TNFα Suppression (ED80 dose) ([5]; mouse, oral gavage 28 days, LPS-induced serum TNFα): 2.10 mg/kg
Disease severity (therapeutic mCIA) EAUC50 ([7]; AUC 0-4 hr, mouse): 0.38 µg·h/mL
Disease severity (therapeutic mCIA) EAUC80 ([7]; AUC 0-4 hr, mouse): 1.19 µg·h/mL
Disease incidence (therapeutic mCIA) EAUC50 ([7]; data set 2): 0.68 µg·h/mL
Disease incidence (therapeutic mCIA) EAUC80 ([7]; data set 2): 1.38 µg·h/mL
Disease severity (therapeutic mCIA) EAUC50 ([7]; data set 2, unit assumed): 0.38 µg·h/mL
Disease severity (therapeutic mCIA) EAUC80 ([7]; data set 2, unit assumed): 1.19 µg·h/mL
Therapeutic mCIA (ED80 dose) ([7]; mouse): 5.5 mg/kg
